{"source": "patent US20240115557A1", "about": "“INHIBITORS OF RNA-GUIDED NUCLEASES AND USES THEREOF” (The Brigham and Women's Hospital, Inc., priority 2022, published 2024)", "key": {"SpCas9:gRNA complex [1]": {"molecular_target": "T1, SpCas9:gRNA complex (Streptococcus pyogenes serotype M1, UniProt Q99ZW2)", "T1 sequence (Q99ZW2 whole entry, one chain of several)": "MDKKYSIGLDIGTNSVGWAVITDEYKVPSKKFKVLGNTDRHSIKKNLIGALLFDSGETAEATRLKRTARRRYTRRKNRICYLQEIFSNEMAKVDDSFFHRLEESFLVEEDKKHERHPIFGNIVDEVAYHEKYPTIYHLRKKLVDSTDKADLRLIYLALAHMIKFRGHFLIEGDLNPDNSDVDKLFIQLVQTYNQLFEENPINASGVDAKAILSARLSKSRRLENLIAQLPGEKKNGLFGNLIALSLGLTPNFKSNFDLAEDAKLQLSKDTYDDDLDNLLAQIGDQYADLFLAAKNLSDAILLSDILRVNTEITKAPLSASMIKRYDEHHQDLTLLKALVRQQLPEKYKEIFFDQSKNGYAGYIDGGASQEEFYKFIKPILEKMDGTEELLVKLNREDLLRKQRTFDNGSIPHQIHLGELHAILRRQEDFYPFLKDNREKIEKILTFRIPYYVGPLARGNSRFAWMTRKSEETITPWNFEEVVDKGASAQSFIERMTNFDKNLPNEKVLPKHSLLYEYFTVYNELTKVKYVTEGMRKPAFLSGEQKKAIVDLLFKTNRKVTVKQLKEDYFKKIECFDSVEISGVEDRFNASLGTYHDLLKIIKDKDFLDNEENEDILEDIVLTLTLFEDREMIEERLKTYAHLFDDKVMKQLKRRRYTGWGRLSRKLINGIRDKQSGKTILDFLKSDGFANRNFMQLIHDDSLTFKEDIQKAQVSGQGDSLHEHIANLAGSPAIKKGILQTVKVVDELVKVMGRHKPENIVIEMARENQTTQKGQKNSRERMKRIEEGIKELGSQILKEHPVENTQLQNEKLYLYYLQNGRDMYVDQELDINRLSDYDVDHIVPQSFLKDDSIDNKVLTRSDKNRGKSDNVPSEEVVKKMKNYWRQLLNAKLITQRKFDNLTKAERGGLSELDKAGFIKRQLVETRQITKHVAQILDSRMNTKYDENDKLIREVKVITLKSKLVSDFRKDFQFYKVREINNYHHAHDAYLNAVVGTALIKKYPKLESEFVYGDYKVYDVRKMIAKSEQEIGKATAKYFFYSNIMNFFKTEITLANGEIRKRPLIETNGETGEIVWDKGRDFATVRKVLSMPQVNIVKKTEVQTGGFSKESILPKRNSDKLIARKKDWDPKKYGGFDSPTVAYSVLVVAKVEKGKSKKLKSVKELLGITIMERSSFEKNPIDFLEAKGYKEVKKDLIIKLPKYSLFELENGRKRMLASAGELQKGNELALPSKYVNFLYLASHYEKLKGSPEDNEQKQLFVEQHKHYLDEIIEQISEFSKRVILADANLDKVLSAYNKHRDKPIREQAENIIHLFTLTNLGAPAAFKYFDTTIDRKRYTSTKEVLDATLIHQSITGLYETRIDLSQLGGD", "details": "control without BRD7586 scaffold"}, "SpCas9:gRNA complex [2]": {"molecular_target": "T1, SpCas9:gRNA complex", "experiment": "biochemical"}, "SpCas9": {"molecular_target": "SpCas9 (Streptococcus pyogenes serotype M1, UniProt Q99ZW2)", "sequence (Q99ZW2 whole entry)": "as the sequence (Q99ZW2 whole entry, one chain of several) above", "experiment": "T7E1 assay for indels at the eGFP gene", "type": "cell-based", "details": "U2OS.eGFP.PEST, 24 h", "method": "FIG. 72A-72E Validation of BRD7586 in cells FIG. 72A T7E1 assay for detecting indels at the eGFP gene. U20S.eGFP.PEST cells were nucleofected with plasmid and incubated with BRD7586 for 24 h. Blue arrowheads indicate uncleaved DNA and black arrowheads indicate cleaved DNA. FIG. 72B T7E1 for detecting indels at the eGFP gene. U20S.eGFP.PEST cells were nucleofected with RNP and incubated with BRD7586 for 24 h. Blue arrowheads indicate uncleaved DNA and black arrowheads indicate cleaved DNA FIG. 72C Inhibition of SpCas9 by BRD0539 and BRD7586 in the eGFP disruption assay using plasmid delivery method and RNP delivery method (U20S.eGFP.PEST cells, 24 h). Error bars represent SD from 3 or 4 independent experiments. […]\nFIG. 75A-75E Mechanism of action studies of BRD7586 FIG. 75A Workflow of the chemoproteomics experiments using the diazirine-based photo-crosslinking probe to identify binding sites of BRD7586 on SpCas9 FIG. 75B T7E1 assay for measuring the activity of Diazirine-BRD7586. […] Blue arrowheads indicate uncleaved DNA while black arrowheads indicate cleaved DNA from the T7E1 reaction FIG. 75C Chemical structure of the acid-cleavable and isotope-coded biotin-azide used for chemoproteomics experiments FIG. 75D Structure of the peptide-compound conjugates to be detected from the mass spectrometry. […]"}, "SpCas9:gRNA": {"molecular_target": "SpCas9:gRNA (Streptococcus pyogenes serotype M1, UniProt Q99ZW2)", "sequence (Q99ZW2 whole entry)": "as the sequence (Q99ZW2 whole entry, one chain of several) above", "experiment": "Photo-crosslinking to purified SpCas9:gRNA", "type": "binding", "details": "1 μM probe, 1 μM SpCas9:gRNA, UV 365 nm", "method": "Cas9 RNP complex was formed by mixing Cas9 (1 μM) and the eGFP-targeting gRNA (1 μM) in a binding buffer (HEPES 20 mM, KCl 100 mM, pH 7.6) for 15 min. Next, BRD7586 (5 μM) was added to the mixture when competition is required (the last lane of FIG. 68B). Finally, Diazirine-BRD7586 was added (1 μM) and the mixture was incubated for 20 min at RT with a final reaction volume of 20 μL in a PCR tube. The mixture was irradiated with UV (365 nm) for 5 min on ice, then 2.5 μL of 10% RapiGest SF solution in PBS was added. Click chemistry was initiated by adding 100 μM of TAMRA-azide (Sigma #760757), 350 μM of Cu-TBTA, and 1.5 mM ascorbate with a final reaction volume of 27 μL. The reaction was conducted for 1 h at 30° C., then SDS-PAGE was performed immediately. The fluorescence gel scanning was conducted using an Azure 600 (Azure Biosystem) to detect the TAMRA fluorescence."}}, "data": [{"smiles": "[N-]=[N+]=NCCOCCOCCOCCNC(=O)CCCC[C@@H]1SC[C@@H]2NC(=O)N[C@@H]21", "note": "[biotin-PEG3-azide]", "values": [{"measurement": "Binding in BLI", "setting": "SpCas9:gRNA complex [1]", "result": "No detectable binding"}]}, {"smiles": "O=C(CCCCC1SC[C@H]2NC(=O)N[C@@H]12)NCCOCCOCCOCCC(=O)NCCOc1ccc(S(=O)(=O)CCC(=O)Nc2nc(-c3ccncc3)cs2)cc1", "note": "(stereo partly shown) [biotin-BRD7586]", "values": [{"measurement": "Kd", "setting": "SpCas9:gRNA complex [2]", "result": 520, "unit": "nM"}]}, {"smiles": "C#CCCC1(CCOc2ccc(S(=O)(=O)CCC(=O)Nc3nc(-c4ccncc4)cs3)cc2)N=N1", "note": "[diazirine-BRD7586]", "values": [{"measurement": "Inhibition of SpCas9 in cells by probe", "setting": "SpCas9", "result": "inhibited SpCas9 in cells"}, {"measurement": "Photo-crosslinking to SpCas9", "setting": "SpCas9:gRNA", "result": "successful covalent conjugation of the probe to SpCas9"}]}]}
